Measurements published in publication PMC11124394, “Novel Combretastatin A-4 Analogs—Design, Synthesis, and Antiproliferative and Anti-Tubulin Activity” (Molecules, 2024).
Like-named read-outs stand apart in the source and are kept apart here.

Key:
Assay type in all cases: cell-based
[1] = tested on: SW620 (metastatic colon cancer) cells; assay: SRB cytotoxicity assay, SW620; settings: Homo sapiens, read-out: Cytotoxicity IC50, SW620
Procedure: (§1) The antiproliferative activity was tested on human primary (SW480) and metastatic (SW620) colon cancer, human prostate cancer (PC3), human liver cancer (HepG2), human breast cancer (MDA), human lung cancer (A549), and human immortalized keratinocyte (HaCaT) cell lines obtained from the American Type Culture Collection (ATCC, Rockville, MD, USA). The cells were cultured in EMEM (SW480 and SW620), RPMI 1640 (PC3) or DMEM High Glucose (HepG2, MDA, A549, and HaCaT) with stable glutamine supplemented with 10% heat-inactivated fetal bovine serum (FBS), penicillin (100 U/mL), and streptomycin (100 µg/mL) in 37 °C and 5% CO2/95% air humified incubator. The cells were grown until 80–90% confluence and then were harvested with 0.25% trypsin and used for the experiments. All the reagents for the cell culture were provided by VWR Chemicals.
(§2) Cytotoxicity was tested with the sulforhodamine B (SRB) assay according to the National Cancer Institute protocol with slight modifications. Briefly, cells were seeded on a 96-well plate (5 × 10^3 cells per well). After 24 h incubation, zero-time control cells were fixed with TCA (final concentration 5%) for 1 h at 4 °C. […] The untreated cells were used as the control. After incubation, the cells were fixed with TCA (final concentration 5%) for 1 h at 4 °C, gently washed 4 times with tap water, and left for drying. The dried fixed cells were incubated with SRB solution (0.05% SRB in 1% acetic acid) for 30 min rt, washed four times with 1% acetic acid, and left for drying. The dried cells were dissolved in 10 mM Tris-base solution (pH 10.5) and the absorbance was read at 510 nm.
(§3) The cell viability was presented as a percent of SRB reduction in the treated cells versus that in control cells. The mean absorbance for control cells was assumed as 100%. No-cell control (blank well) absorbance was assumed as 0%, unless the compound was cytostatic, then 0% referred to zero-time control. The IC50 values were calculated using the GraphPad Prism 10.1.2 (324) (USA) software. The most cytotoxic compounds (8 and 20) were selected for further in vitro experiments.

[2] = tested on: HepG2 (liver cancer) cells; assay: SRB cytotoxicity assay, HepG2; settings: Homo sapiens, read-out: Cytotoxicity IC50, HepG2
Procedure: as §1, §2, §3

[3] = tested on: A549 (lung cancer) cells; assay: SRB cytotoxicity assay, A549; settings: Homo sapiens, read-out: Cytotoxicity IC50, A549
Procedure: as §1, §2, §3

[4] = tested on: PC3 (prostate cancer) cells; assay: SRB cytotoxicity assay, PC3; settings: Homo sapiens, read-out: Cytotoxicity IC50, PC3
Procedure: as §1, §2, §3

[5] = tested on: SW480 (primary colon cancer) cells; assay: SRB cytotoxicity assay, SW480; settings: Homo sapiens, read-out: Cytotoxicity IC50, SW480
Procedure: as §1, §2, §3

[6] = tested on: MDA (breast cancer) cells; assay: SRB cytotoxicity assay, MDA; settings: Homo sapiens, read-out: Cytotoxicity IC50, MDA
Procedure: as §1, §2, §3

[7] = SRB cytotoxicity assay, HaCaT; settings: human, 48 h culture, mean ± SD, at least three independent experiments, compounds marked * : low solubility, real values might be lower
Procedure: as §1, §2, §3

[8] = SW-620, SRB assay, 48 h culture, mean ± SD, at least three independent experiments, compounds marked * : low solubility, real values might be lower
[9] = HepG2, SRB assay, 48 h culture, mean ± SD, at least three independent experiments, compounds marked * : low solubility, real values might be lower
[10] = A549, SRB assay, 48 h culture, mean ± SD, at least three independent experiments, compounds marked * : low solubility, real values might be lower
[11] = SRB assay, 48 h culture, mean ± SD, at least three independent experiments, compounds marked * : low solubility, real values might be lower
[12] = SW480, SRB assay, 48 h culture, mean ± SD, at least three independent experiments, compounds marked * : low solubility, real values might be lower
[13] = HaCaT immortalized keratinocyte cells (non-tumor cell line)

SMILES | IC50 [1, 8] [µM] | IC50 [2, 9] [µM] | IC50 [3, 10] [µM] | IC50 [4, 11] [µM] | IC50 [5, 12] [µM] | IC50 [6, 11] [µM] | IC50 at 48 h [7, 13] [µM] | IC50 ([1]; SW-620, 48 h) [µM] | IC50 ([2]; HepG2, 48 h) [µM] | IC50 ([3]; A549, 48 h) [µM] | IC50 ([4]; 48 h) [µM] | IC50 ([5]; SW480, 48 h) [µM] | IC50 ([6]; 48 h) [µM] | IC50 at 48 h ([7]; non-tumor cell line) [µM]
C#CCOC(=O)/C(=C/c1cc(OC)c(OC)c(OC)c1)c1ccc(OC)c(Br)c1 [Compound 6] | > 100 | > 100 | > 100 | > 100 | > 100 | > 100 | > 100 |  |  |  |  |  |  | 
CCCCNC(=O)/C(=C/c1cc(OC)c(OC)c(OC)c1)c1ccc(OC)c(Br)c1 [Compound 11] | 50.8 ± 14.5 | 50.5 ± 17.5 | 65.1 ± 17.3 | 67.2 ± 18.6 | 50.2 ± 11.2 | 61.4 ± 21.8 | 58.6 ± 22.2 |  |  |  |  |  |  | 
COc1ccc(/C(=C\c2cc(OC)c(OC)c(OC)c2)C(=O)N(Cc2ccccc2)Cc2ccccc2)cc1Br [Compound 22] | > 100 | > 100 | > 100 | > 100 | > 100 | > 100 | > 100 |  |  |  |  |  |  | 
COc1ccc(/C(=C\c2cc(OC)c(OC)c(OC)c2)C(=O)NCc2ccc(Cl)cc2)cc1Br [Compound 18] | > 100 | 89.6 ± 24.4 | 62.2 ± 8.6 | > 100 | > 100 | 66.7 ± 6.4 | > 100 |  |  |  |  |  |  | 
C#CCNC(=O)/C(=C/c1cc(OC)c(OC)c(OC)c1)c1ccc(OC)c(Br)c1 [Compound 12] | > 100 | > 100 | > 100 | > 100 | > 100 | > 100 | > 100 |  |  |  |  |  |  | 
COc1cc([C@@H]2c3cc4c(cc3[C@H](O)[C@H]3COC(=O)[C@H]23)OCO4)cc(OC)c1OC [podophyllotoxin, reference compound] |  |  |  |  |  |  |  | 0.0292 ± 0.0078 | 0.0258 ± 0.0056 | 0.0247 ± 0.0039 | 0.0129 ± 0.0015 | 0.0444 ± 0.0022 | 0.0293 ± 0.0028 | 0.0316 ± 0.004
COc1ccc(/C(=C\c2cc(OC)c(OC)c(OC)c2)C(=O)OCc2ccccc2)cc1Br [Compound 7] | > 100 | > 100 | > 100 | > 100 | > 100 | > 100 | > 100 |  |  |  |  |  |  | 
COc1ccc(/C(=C\c2cc(OC)c(OC)c(OC)c2)C(=O)NCc2ccccc2[N+](=O)[O-])cc1Br [Compound 15] | > 100 | > 100 | > 100 | > 100 | > 100 | > 100 | > 100 |  |  |  |  |  |  | 
CNC(=O)/C(=C/c1cc(OC)c(OC)c(OC)c1)c1ccc(OC)c(Br)c1 [Compound 10] | 46 ± 11.4 | 50.5 ± 10.5 | 49.3 ± 16.3 | 44.9 ± 12.1 | 52.2 ± 17.9 | 55.5 ± 20.3 | 55.3 ± 17 |  |  |  |  |  |  | 
COc1ccc(/C(=C\c2cc(OC)c(OC)c(OC)c2)C(=O)N2CCOCC2)cc1Br [Compound 21] | > 100 | > 100 | > 100 | > 100 | > 100 | > 100 | > 100 |  |  |  |  |  |  | 
COc1cc2c(c(OC)c1OC)-c1ccc(OC)c(=O)cc1[C@@H](NC(C)=O)CC2 [colchicine, reference compound] |  |  |  |  |  |  |  | 0.13 ± 0.089 | 0.107 ± 0.025 | 0.094 ± 0.009 | 0.118 ± 0.047 | 0.166 ± 0.065 | 0.11 ± 0.015 | 0.104 ± 0.012
COc1ccc(/C(=C\c2cc(OC)c(OC)c(OC)c2)C(=O)Nc2ccccc2)cc1Br [Compound 14] | > 100 | > 100 | > 100 | > 100 | > 100 | > 100 | > 100 |  |  |  |  |  |  | 
COc1ccc(/C(=C\c2cc(OC)c(OC)c(OC)c2)C(=O)NCc2cccc(Cl)c2)cc1Br [Compound 17] | > 100 | > 100 | > 100 | > 100 | > 100 | > 100 | > 100 |  |  |  |  |  |  | 
COC(=O)/C(=C/c1cc(OC)c(OC)c(OC)c1)c1ccc(OC)c(Br)c1 [Compound 4] | 61.8 ± 11.4 | 63.7 ± 12.6 | 53 ± 10.8 | 65.9 ± 16.1 | 57.6 ± 9.4 | 55.2 ± 17.3 | 68.3 ± 19.6 |  |  |  |  |  |  | 
COc1ccc(/C(=C\c2cc(OC)c(OC)c(OC)c2)C(=O)NCc2ccccc2)cc1Br [Compound 13] | 62.4 ± 3.1 | 56.2 ± 22.2 | 82.1 ± 13.9 | 55.8 ± 23.7 | 59.8 ± 23 | 59.8 ± 18.8 | 68.5 ± 4.8 |  |  |  |  |  |  | 
COc1ccc(/C(=C\c2cc(OC)c(OC)c(OC)c2)C(=O)NCc2ccccc2Cl)cc1Br [Compound 16] | > 100 | > 100 | 92.8 ± 7.7 | > 100 | > 100 | 99.8 ± 3.9 | > 100 |  |  |  |  |  |  | 
CCOC(=O)/C(=C/c1cc(OC)c(OC)c(OC)c1)c1ccc(OC)c(Br)c1 [Compound 5] | 57.5 ± 3.9 | 42.1 ± 10.2 | 46.6 ± 12.1 | 43.2 ± 10.2 | 73.6 ± 8.4 | 45.2 ± 5.5 | 45 ± 7.2 |  |  |  |  |  |  | 
